Where a name gives a salt, the structure may show the parent alone.

Melting point data for 26 compounds are collected here from US6875761B2 (Eisai Co., Ltd., priority 1997, dated 2005).

As for `CCN1CCN(c2nc(-c3ccc(CC(C)CO)cc3)cc3ccsc23)CC1` (centres unmarked) (as salt: hydrochloride) [Example 441, 7-(4-ethylpiperazin-1-yl)-5-[4-(3-hydroxy-2-methylpropyl)phenyl]thieno[2,3-c]pyridine dihydrochloride], the melting point fell in the range of 108 to 110 °C.

As for `CCN1CCN(c2nc(-c3ccc(OCCO)cc3)cc3sccc23)CC1` (as salt: hydrochloride) [Example 286, dihydrochloride], the melting point is 128 to 129 °C.

In the case of `CCN1CCN(c2nc(/C=C/c3ccc(N4CCOCC4)cc3)cc3ccccc23)CC1` (as salt: oxalate) [Example 205, 3-{(E)-2-[4-(4-Morpholinyl)Phenyl]Ethenyl}-1-(4-Ethylpiperazin-1-Yl)Isoquinoline Oxalate], the melting point is 248 to 250 °C.

Take `CCNC(=O)c1ccc(-c2cc3ccsc3c(N3CCN(CC)CC3)n2)cc1` (as salt: hydrochloride) [Example 448, 7-(4-ethylpiperazin-1-yl)-5-[4-(N-ethylcarbamoyl)phenyl]thieno[2,3-c]pyridine dihydrochloride]: the melting point was 142 to 143 °C.

Consider `COc1ccc(-c2cc3ccccc3c(N3CCN(C)CC3)n2)cc1` (as salt: hydrochloride) [Example 2, 1-(1-methylpiperazin-4-yl)-3-(4-methoxyphenyl)isoquinoline], for which the melting point lay in the range of 134 to 136 °C.

`CCN1CCN(c2nc(-c3ccc(O)cc3)cc3sccc23)CC1` (as salt: hydrochloride) registered a melting point of 173 to 175 °C.

`CCN1CCN(c2nc(-c3ccc(OCCO)cc3)cc3ccccc23)CC1` (as salt: hydrochloride) [Example 36, 1-(4-ethylpiperazin-1-yl)-3-[4-(2-hydroxyethoxy)phenyl]isoquinoline dihydrochloride]: the melting point lay within 127 to 129 °C.

Regarding `CCN1CCN(c2nc(-c3ccc(N4CCC(O)CC4)nc3)cc3ccsc23)CC1` (as salt: hydrochloride) [Example 265, 5-[2-(4-hydroxypiperidin-1-yl)pyridin-5-yl]-7-(4-ethylpiperazin-1-yl)thieno[2,3-c]pyridine Hydrochloride], the melting point was 208 to 210 °C.

Compound `CCN1CCN(c2nc(-c3ccc(OC)cc3)cc3cnccc23)CC1` (as salt: hydrochloride) gave a melting point of 157 to 160 °C.

With `CCN1CCN(c2nc(-c3ccc(C(O)C4CCCC4)cc3)cc3ccsc23)CC1` (centres unmarked) (as salt: hydrochloride) [Example 458, 7-(4-ethylpiperazin-1-yl)-5-[4-(cyclopentylhydroxymethyl)phenyl]thieno[2,3-c]pyridine dihydrochloride], the melting point lay within 128 to 129 °C.

Consider `CCN1CCN(c2nc(-c3ccc(C(CC(C)O)OC)cc3)cc3ccccc23)CC1` (centres unmarked) (as salt: hydrochloride) [Example 26, 3-[4-(3-hydroxy-1-methoxybutyl)phenyl]-1-(4-ethylpiperazin-1-yl)isoquinoline], for which the melting point lay in the range of 171 to 174 °C.

`CCN1CCN(c2nc(-c3ccccc3)cc3ccc(OC)cc23)CC1` (as salt: hydrochloride) returned a melting point of 130 to 132 °C.

Regarding `CCN1CCN(c2nc(-c3ccc(C(O)CC(C)(C)O)cc3)cc3ccccc23)CC1` (centres unmarked) (as salt: hydrochloride) [Example 25, 3-[4-(1,3-dihydroxy-3-methylbutyl)phenyl]-1-(4-ethylpiperazin-1-yl)isoquinoline], the melting point fell in the range of 190 to 192 °C.

As for `CCN1CCN(c2nc(-c3ccc(CC(C)O)cc3)cc3ccccc23)CC1` (centres unmarked) (as salt: oxalate) [Example 376, 1-(4-ethylpiperazin-1-yl)-3-[4-(2-hydroxypropyl)phenyl]isoquinoline oxalate], the melting point was 174 to 176 °C.

For the compound `CCN1CCN(c2nc(-c3ccc(C4=CCOCC4)cc3)cc3ccsc23)CC1` (as salt: hydrochloride) [Example 266, 5-[4-(5,6-dihydro-2H-pyran-4-yl)phenyl]-7-(4-ethylpiperazin-1-yl)thieno[2,3-c]pyridine Hydrochloride], the melting point is 176 to 179 °C.

Compound `CCN1CCN(c2nc(-c3ccc(O[C@@H](C)CO)cc3)cc3ccsc23)CC1` (as salt: hydrochloride) [Example 438, 7-(4-ethylpiperazin-1-yl)-5-[4-(1-methyl-2-hydroxyethoxy)phenyl]thieno[2,3-c]pyridine dihydrochloride] gave a melting point of 126 to 127 °C.

In the case of `CCN1CCN(c2nc(-c3ccccc3O)cc3ccccc23)CC1.Cl`, the melting point was 228 to 230 °C.

`CCCN1CCN(c2nc(-c3ccc(OCCO)cc3)cc3sccc23)CC1` (as salt: hydrochloride) [Example 293, 4-(4-propylpiperazin-1-yl)-6-[4-(2-hydroxyethoxy)phenyl]thieno[3,2-c]pyridine]: the melting point is 128 to 130 °C.

The compound `CCN1CCN(c2nc(-c3ccc(OCC(C)(C)O)cc3)cc3ccsc23)CC1` (as salt: hydrochloride) [Example 260, 7-(1-Ethylpiperazin-4-yl)-5-[4-(2-hydroxy-2-methylpropoxy)phenyl]thieno[2,3-c]pyridine dihydrochloride] registered a melting point of 137 to 139 °C.

The compound `CCN1CCN(c2nc(-c3ccc(CCCO)nc3)cc3ccsc23)CC1` (as salt: hydrochloride) [Example 429, 7-(4-ethylpiperazin-1yl)-5-[2-(3-hydroxypropyl)pyridin-5-yl]thieno[2,3-c]pyridine hydrochloride] had a melting point of 204 to 205 °C.

For the compound `CCN1CCN(c2nc(-c3ccc(OCCOC)cn3)cc3ccccc23)CC1` (as salt: hydrochloride) [Example 127, 1-(1-Ethylpiperazin-4-yl)-3-[5-(2-Methoxyethoxy)Pyridin-2-yl]Isoquinoline], the melting point lay in the range of 116 to 119 °C.

`CCN1CCN(c2nc(-c3ccc4c(c3)CC(CO)C4)cc3ccccc23)CC1` (centres unmarked) (as salt: hydrochloride) [Example 393, 1-(4-Ethylpiperazin-1-yl)-3-(2-Hydroxymethylindan-5-yl)Isoquinoline Dihydrochloride] had a melting point of 136.5 to 138 °C.

On to `CCN1CCN(c2nc(-c3ccc(S(=O)(=O)CC)cc3)cc3ccsc23)CC1` (as salt: hydrochloride) [Example 450, 7-(4-ethylpiperazin-1-yl)-5-(4-ethanesulfonylphenyl)thieno[2,3-c]pyridine dihydrochloride], for which the melting point was 230 to 232 °C (dec.).

`C=CCN1CCN(c2nc(-c3ccc(OC)cc3)cc3ccccc23)CC1` (as salt: hydrochloride) [Example 240, 1-(1-allylpiperazin-4-yl)-3-(4-methoxyphenyl)isoquinoline dihydrochloride] returned a melting point of 111 to 116 °C.

`CCN1CCN(c2nc(-c3ccc(S(=O)(=O)CCCOC)cc3)cc3ccccc23)CC1` (as salt: hydrochloride) [Example 350, 1-(4-ethylpiperazin-1-yl)-3-{4-[(3-methoxypropyl)sulfonyl]phenyl}isoquinoline] returned a melting point of 177.5 to 180 °C.

Consider `CCN1CCN(c2nc(-c3csc(CO)c3)cc3ccccc23)CC1` (as salt: hydrochloride) [Example 161, 1-(1-ethylpiperazin-4-yl)-3-(2-hydroxymethylthiophen-4-yl)isoquinoline dihydrochloride], for which the melting point turned out to be 170 °C.
